The nature of data set [1]: CC50 assay (CellTiter-Glo) in Huh-7 HCV replicon cells. The format is cell-based, human. The settings on record: human, 3 days incubation, CellTiter-Glo readout. The method, boiled down: (§1)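 Huh-7 cells carrying an HCV replicon (6000/well) exposed to 3-fold serial compound dilutions for 3 days at 37 °C, final DMSO 0.5% where used. EC50 read as replicon luciferase luminescence after cell lysis; CC50 from CellTiter-Glo luminescence after 10 min at room temperature.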
On the technique in general: ATP-based viability assays read luminescence as a measure of living cells.

Data set [2] concerns HCV replicon in human hepatoma Huh-7 cell line. Description: Anti-HCV replicon assay (EC50, luciferase). The settings on record: Hepatitis C virus, Huh-7, 72 h. The format is cell-based. A digest of the protocol: as §1
A general note: Replicon systems follow genome replication, usually without infectious particles.

pEC50: −log10 of the molar value.

As a reminder, the CC50 is the concentration giving 50% cytotoxicity. For orientation: pEC50 means the EC50 on a negative log10 scale, so that one unit is a factor of ten. Read a high pEC50 as a small EC50. `C[C@H](N)C(=O)Nc1ccc(-c2ccc3nc(NCc4ccc(S(N)(=O)=O)cc4)nc(NCC(F)(F)F)c3n2)cc1F` [Example 216, 2-Amino-N-{2-fluoro-4-[2-(4-sulfamoyl-benzylamino)-4-(2,2,2-trifluoro-ethylamino)-pyrido[3,2-d]pyrimidin-6-yl]-phenyl}-propionamide]: the CC50 at 3 days in data set [1] is less than 5 µM. Further, the pEC50 in data set [2] is greater than 7.00.

Turning to `NS(=O)(=O)c1ccc(CNc2nc(NCC(F)(F)F)c3nc(-c4cn[nH]c4)ccc3n2)cc1` [Example 189, 4-{[6-(1H-Pyrazol-4-yl)-4-(2,2,2-trifluoro-ethylamino)-pyrido[3,2-d]pyrimidin-2-ylamino]-methyl}-benzenesulfonamide], the CC50 at 3 days in data set [1] was 5 to 25 µM. In addition, in data set [2], the pEC50 was greater than 7.00.

`CCOc1nc(NCc2ccc(S(N)(=O)=O)cc2)nc2ccc(-c3ccc(F)cc3)nc12` [Example 109, 4-{[4-ethoxy-6-(4-fluoro-phenyl)-pyrido[3,2-d]pyrimidin-2-ylamino]-methyl}-benzenesulfonamide] displayed a CC50 at 3 days in data set [1] of 5 to 25 µM. In data set [2], this compound gave a pEC50 greater than 7.00.

For `CC1(Oc2nc(NCc3ccc(S(N)(=O)=O)cc3)nc3ccc(-c4ccc(F)cc4)nc23)CC1` [Example 301, 4-{[6-(4-Fluoro-phenyl)-4-(1-methyl-cyclopropoxy)-pyrido[3,2-d]pyrimidin-2-ylamino]-methyl}-benzenesulfonamide], the CC50 at 3 days in data set [1] was less than 5 µM. In data set [2], this compound showed a pEC50 greater than 7.00.

Compound `CN1CC[C@H](C(=O)Nc2ccc(-c3ccc4nc(NCc5ccc(S(N)(=O)=O)cc5)nc(NCC(F)(F)F)c4n3)cc2)C1` [Example 178, 1-Methyl-pyrrolidine-3-carboxylic acid {4-[2-(4-sulfamoyl-benzylamino)-4-(2,2,2-trifluoro-ethylamino)-pyrido[3,2-d]pyrimidin-6-yl]-phenyl}-amide] registered a CC50 at 3 days in data set [1] of 5 to 25 µM. In data set [2], this compound showed a pEC50 greater than 7.00.

Consider `NS(=O)(=O)c1ccc(CNc2nc(NCC(F)(F)F)c3nc(-c4cnc(N5CCCC5)cn4)ccc3n2)cc1` [Example 167, 4-{[6-(5-Pyrrolidin-1-yl-pyrazin-2-yl)-4-(2,2,2-trifluoro-ethylamino)-pyrido[3,2-d]pyrimidin-2-ylamino]-methyl}-benzenesulfonamide], for which the CC50 at 3 days in data set [1] is less than 5 µM. Moreover, the pEC50 in data set [2] is greater than 7.00.

With `COc1nc(NCc2ccc(F)cc2)nc2ccc(-c3ccc(F)cc3)nc12` [Example 26, (4-Fluoro-benzyl)-[6-(4-fluoro-phenyl)-4-methoxy-pyrido[3,2-d]pyrimidin-2-yl]-amine], the CC50 at 3 days in data set [1] is greater than 25 µM. Also, the pEC50 in data set [2] was greater than 7.00.

In turn, `CCOc1nc(NCc2ccc(S(N)(=O)=O)cc2)nc2ccc(-c3ccc(NC(=O)OCCN4CCCC4)cc3)nc12` [Example 125] yielded a CC50 at 3 days in data set [1] of less than 5 µM. For the same compound, in data set [2], the pEC50 is greater than 7.00.

In turn, `CCOc1nc(NCc2ccc(S(N)(=O)=O)cc2)nc2ccc(-c3cnc(N)s3)nc12` [Example 126, 4-{[4-Ethoxy-6-(2-aminothiazole-5-yl)-pyrido[3,2-d]pyrimidin-2-ylamino]-methyl}-benzenesulfonamide] registered a CC50 at 3 days in data set [1] of less than 5 µM. The pEC50 in data set [2] is greater than 7.00.

Take `CC(C)Nc1nc(Nc2ccccc2)nc2ccc(-c3ccc(F)cc3)nc12` [Example 50, 6-(4-Fluoro-phenyl)-N4-isopropyl-N2-phenyl-pyrido[3,2-d]pyrimidine-2,4-diamine]: the CC50 at 3 days in data set [1] was greater than 25 µM. In data set [2], the pEC50 is 5.70 to 6.60.

`C[C@H](O)C(=O)Nc1ccc(-c2ccc3nc(NCc4ccc(S(N)(=O)=O)cc4)nc(NCC(F)(F)F)c3n2)cc1F` [Example 209, N-{2-Fluoro-4-[2-(4-sulfamoyl-benzylamino)-4-(2,2,2-trifluoro-ethylamino)-pyrido[3,2-d]pyrimidin-6-yl]-phenyl}-2-hydroxy-propionamide] returned a CC50 at 3 days in data set [1] of less than 5 µM. The pEC50 in data set [2] is greater than 7.00.

`NS(=O)(=O)c1ccc(CNc2nc(NCC(F)(F)F)c3nc(-n4ccnc4)ccc3n2)cc1` [Example 286, 4-{[6-Imidazol-1-yl-4-(2,2,2-trifluoro-ethylamino)-pyrido[3,2-d]pyrimidin-2-ylamino]-methyl}-benzenesulfonamide]: in data set [1], the CC50 at 3 days fell in the range of 5 to 25 µM. Moreover, the pEC50 in data set [2] is greater than 7.00.

In data set [1], `CC(C)N1CCC(NS(=O)(=O)c2cc(-c3ccc4nc(NCc5ccc(S(N)(=O)=O)cc5)nc(NCC(F)(F)F)c4n3)ccc2Cl)CC1` [Example 193, 2-Chloro-N-(1-isopropyl-piperidin-4-yl)-5-[2-(4-sulfamoyl-benzylamino)-4-(2,2,2-trifluoro-ethylamino)-pyrido[3,2-d]pyrimidin-6-yl]-benzenesulfonamide] had a CC50 at 3 days of less than 5 µM. This compound showed a pEC50 in data set [2] greater than 7.00.

On to `CCOc1nc(NCc2ccc(F)cc2)nc2ccc(-c3ccc(NC(=O)C4(O)CC4)cc3)nc12` [Example 101, 1-Hydroxy-cyclopropanecarboxylic acid {4-[4-ethoxy-2-(4-fluoro-benzylamino)-pyrido[3,2-d]pyrimidin-6-yl]-phenyl}-amide], for which the CC50 at 3 days in data set [1] was in the range of 5 to 25 µM. Also, the pEC50 in data set [2] is greater than 7.00.

As for `Fc1ccc(-c2ccc3nc(NCC(F)(F)F)nc(NCC(F)(F)F)c3n2)cc1` [Example 60, 6-(4-Fluoro-phenyl)-2,4-bis(2,2,2-trifluoro-ethylamino)-pyrido[3,2-d]pyrimidine], the CC50 at 3 days in data set [1] is greater than 25 µM. Also, the pEC50 in data set [2] was greater than 7.00.

In data set [1], `CCOc1nc(NCc2ccc(C(=O)N(C)C)cc2)nc2ccc(-c3ccc(F)cc3)nc12` [Example 262, 4-{[4-Ethoxy-6-(4-fluoro-phenyl)-pyrido[3,2-d]pyrimidin-2-ylamino]-methyl}-N,N-dimethyl-benzamide] came in with a CC50 at 3 days greater than 25 µM. In addition, in data set [2], the pEC50 was greater than 7.00.

In turn, `CC(C)(C)OC(=O)N1CCC(NS(=O)(=O)c2cc(-c3ccc4nc(NCc5ccc(S(N)(=O)=O)cc5)nc(NCC(F)(F)F)c4n3)ccc2F)CC1` [Example 215, 4-{2-Fluoro-5-[2-(4-sulfamoyl-benzylamino)-4-(2,2,2-trifluoro-ethylamino)-pyrido[3,2-d]pyrimidin-6-yl]-benzenesulfonylamino}-piperidine-1-carboxylic acid tert-butyl ester] came in with a CC50 at 3 days in data set [1] of 5 to 25 µM. In data set [2], this compound showed a pEC50 greater than 7.00.

In the case of `CCOc1nc(NCc2nccs2)nc2ccc(-c3ccc(F)cc3)nc12` [Example 114, [4-Ethoxy-6-(4-fluoro-phenyl)-pyrido[3,2-d]pyrimidin-2-yl]-thiazol-2-ylmethyl-amine], in data set [1], the CC50 at 3 days lay in the range of 5 to 25 µM. In data set [2], this compound had a pEC50 greater than 7.00.

`N[C@@H](CO)C(=O)Nc1ccc(-c2ccc3nc(NCc4ccc(S(N)(=O)=O)cc4)nc(NC4CC4)c3n2)cc1` [Example 182, 2-Amino-N-{4-[4-cyclopropylamino-2-(4-sulfamoyl-benzylamino)-pyrido[3,2-d]pyrimidin-6-yl]-phenyl}-3-hydroxy-propionamide] yielded a CC50 at 3 days in data set [1] of 5 to 25 µM. Moreover, the pEC50 in data set [2] was greater than 7.00.

In the case of `CCOc1nc(NCc2ccc(S(N)(=O)=O)cc2)nc2ccc(-c3cccc(S(N)(=O)=O)c3)nc12` [Example 133, 4-{[4-Ethoxy-6-(3-(aminosulfonyl)-phenyl)-pyrido[3,2-d]pyrimidin-2-ylamino]-methyl}-benzenesulfonamide], the CC50 at 3 days in data set [1] lay in the range of 5 to 25 µM. This compound also showed a pEC50 in data set [2] greater than 7.00.

Values taken from patent US8729089B2 (Gilead Sciences, Inc., priority 2006, dated 2014).
